Where two headings read alike, the source gives them in different places. *1 amine or outer side, *2 acyl side, *3 side chain or, on linkers, in order; H or OH if unused. Where a SMILES comes first, the peptide text is derived from it. Side-chain parts run from the residue outwards. [ ]: non-standard residue; d: D form. The star is where a group is joined. Isobutyryl(2-(3-CN-5-F-Ph)) = CC(C)(C(=O)*)c1cc(F)cc(C#N)c1; C20 diacid = O=C(O)CCCCCCCCCCCCCCCCCCC(=O)*; Phenylacetyl(3-Cl) = O=C(Cc1cccc(Cl)c1)*; γGlu = O=C(O)[C@H](CCC(=O)[*:2])N[*:1]; X5 = O=C(C1(c2ccc(F)cc2F)CCCC1)*; X72 = CC(C)(C(=O)*)c1cccc(Cl)c1F; X33 = CCC(CC)(C(=O)*)c1ccccc1; β3hA = C[C@H](N)CC(=O)O; AEEA = NCCOCCOCC(=O)O; Aib = CC(C)(N)C(=O)O; GABA = NCCCC(=O)O; βAla = NCCC(=O)O
Assays:
Assay type in all cases: cell-based
GLP-1 receptor [1] = target: T1, GLP-1 receptor (Homo sapiens, UniProt P43220); assay: PathHunter β-arrestin assay, GLP-1 receptor; parameters: host or cells: PathHunter CHO-K1 GLP1R β-Arrestin Cell Line
T1 sequence (P43220 24-463): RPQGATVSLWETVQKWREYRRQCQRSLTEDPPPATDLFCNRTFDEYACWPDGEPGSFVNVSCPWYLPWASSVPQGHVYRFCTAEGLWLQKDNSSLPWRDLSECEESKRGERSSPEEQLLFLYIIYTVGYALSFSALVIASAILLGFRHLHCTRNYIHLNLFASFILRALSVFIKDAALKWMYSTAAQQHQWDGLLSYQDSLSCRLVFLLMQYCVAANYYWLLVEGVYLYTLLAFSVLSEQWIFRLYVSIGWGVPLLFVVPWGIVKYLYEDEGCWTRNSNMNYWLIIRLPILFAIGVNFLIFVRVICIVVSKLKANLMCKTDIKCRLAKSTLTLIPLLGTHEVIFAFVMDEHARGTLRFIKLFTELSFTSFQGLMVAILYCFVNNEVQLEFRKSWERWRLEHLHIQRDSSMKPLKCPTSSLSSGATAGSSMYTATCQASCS

GIP receptor [2] = target: T2, GIP receptor (Homo sapiens, UniProt P48546); assay: PathHunter β-arrestin assay, GIP receptor; parameters: host or cells: PathHunter CHO-K1 GIPR β-Arrestin Cell Line
T2 sequence (P48546 22-466): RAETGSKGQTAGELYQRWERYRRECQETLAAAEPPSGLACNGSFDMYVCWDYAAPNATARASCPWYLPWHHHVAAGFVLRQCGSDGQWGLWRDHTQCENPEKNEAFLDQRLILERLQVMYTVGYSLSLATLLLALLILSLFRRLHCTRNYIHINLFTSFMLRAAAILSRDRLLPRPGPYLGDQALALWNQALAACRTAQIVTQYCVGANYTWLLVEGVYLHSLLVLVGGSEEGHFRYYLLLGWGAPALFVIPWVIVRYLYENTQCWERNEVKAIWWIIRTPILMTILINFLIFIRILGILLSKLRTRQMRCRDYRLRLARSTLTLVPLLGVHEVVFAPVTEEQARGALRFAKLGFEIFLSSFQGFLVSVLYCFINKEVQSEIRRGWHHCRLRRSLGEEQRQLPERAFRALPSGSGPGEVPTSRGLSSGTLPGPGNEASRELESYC
Protocol: β-arrestin-2 recruitment for GLP-1 receptor or GIP receptor was measured using the DiscoverX PathHunter Detection Kit and PathHunter® CHO-K1 GLPIR β-Arrestin Cell Line or PathHunter® CHO-K1 GIPR β-Arrestin Cell Line, respectively). Briefly, cells were grown in Ham's F12 Nutrient Mix with 10% FBS and lifted with Cell dissociation buffer, Enzyme free, PBS based (ThermoFisher). Harvested cells were pelleted and resuspended in Assay Complete Cell Plating Reagent 2 and 5000 cells per well were plated in tissue culture treated 384-well small volume white assay plates. Plates were then incubated at 37° C. and 5% CO2 overnight. The media was then replaced with fresh Assay Complete Cell Plating Reagent 2. Cells were then treated with 10 nl compound in DMSO using an ECHO 550 acoustic dispenser (Labcyte) in a 20-point dose response format in duplicate for 90 min at 37° C. The assay was then completed according to the manufacturer's instructions. Luminescence was measured using a Perkin Elmer Envision plate reader. Raw data was normalized to the maximum signal from GLP-1 or GIP (high) and DMSO (low). Dose response curves were analyzed using GraphPad Prism 9.0.

GLP-1 receptor [3] = target: T1, GLP-1 receptor; assay: HitHunter cAMP assay, GLP-1 receptor; conditions: for Emax: read-out: Emax GLP-1R
GIP receptor [4] = target: T2, GIP receptor; assay: HitHunter cAMP assay, GIP receptor; conditions: for Emax: read-out: Emax GIP-1R
[5] = β-arrestin-2 recruitment, PathHunter CHO-K1 GLP1R β-Arrestin Cell Line, 90 min at 37° C., normalized to GLP-1, read-out: GLP-1R β Arrestin EC50
[6] = β-arrestin-2 recruitment, PathHunter CHO-K1 GIPR β-Arrestin Cell Line, 90 min at 37° C., normalized to GIP, read-out: GIPR β Arrestin EC50
[7] = CHO cells stably expressing human GLP-1 receptor, cAMP accumulation, 30 min, read-out: EC50 GLP-1R
[8] = CHO cells, cAMP, normalized to maximum signal from GLP-1 (high) and DMSO (low)
[9] = CHO cells stably expressing GIP receptor, cAMP accumulation, 30 min, read-out: EC50 GIP-1R
[10] = CHO cells, cAMP, normalized to maximum signal from GIP (high) and DMSO (low)

Structure (SMILES): CC[C@H](C)[C@H](NC(=O)[C@H](CC(C)C)NC(=O)[C@H](Cc1c[nH]c2ccccc12)NC(=O)[C@H](CCC(N)=O)NC(=O)[C@@H](NC(=O)[C@H](Cc1ccccc1)NC(=O)[C@H](C)NC(=O)[C@H](CCCCNC(=O)COCCOCCNC(=O)COCCOCCNC(=O)CC[C@H](NC(=O)CCCCCCCCCCCCCCCCCCC(=O)O)C(=O)O)NC(=O)[C@H](CCC(N)=O)NC(=O)[C@H](C)NC(=O)[C@@H](NC(=O)[C@H](CCCCN)NC(=O)[C@H](CC(=O)O)NC(=O)[C@H](CC(C)C)NC(=O)C(C)(C)NC(=O)[C@@H](NC(=O)[C@H](CO)NC(=O)[C@H](Cc1ccc(O)cc1)NC(=O)[C@H](CC(=O)O)NC(=O)[C@H](CO)NC(=O)[C@@H](NC(=O)[C@H](Cc1ccccc1)NC(=O)[C@@H](NC(=O)CNC(=O)[C@H](CCC(=O)O)NC(=O)CCNC(=O)C(CC)(CC)c1ccccc1)[C@@H](C)O)[C@@H](C)O)[C@@H](C)CC)[C@@H](C)CC)C(C)C)C(=O)N[C@@H](C)C(=O)NCC(=O)NCC(=O)N1CCC[C@H]1C(=O)N[C@@H](CO)C(=O)N[C@@H](CO)C(=O)NCC(=O)N[C@@H](C)C(=O)N1CCC[C@H]1C(=O)N1CCC[C@H]1C(=O)N1CCC[C@H]1C(=O)N[C@@H](CO)C(N)=O [Compound 218] ({X33-βAla}-EGTFTSDYSI[Aib]LDKIAQK([AEEA-AEEA-γGlu-C20 diacid])AFVQWLIAGGPSSGAPPPS-NH2)
- EC50 (GLP-1 receptor [1]; [5]): > 1000 nM
- EC50 (GIP receptor [2]; [6]): < 1000 nM
- EC50 (GLP-1 receptor [3]; [7]): 0.1 to 1 nM
- Emax (GLP-1 receptor [3]; [8]): 103%
- EC50 (GIP receptor [4]; [9]): 0.1 to 1 nM
- Emax (GIP receptor [4]; [10]): 100%

Structure (SMILES): CC[C@H](C)[C@H](NC(=O)[C@H](CC(C)C)NC(=O)[C@H](Cc1c[nH]c2ccccc12)NC(=O)[C@H](CCC(N)=O)NC(=O)[C@@H](NC(=O)[C@H](Cc1ccccc1)NC(=O)[C@H](C)NC(=O)[C@H](CCCCNC(=O)COCCOCCNC(=O)COCCOCCNC(=O)CC[C@H](NC(=O)CCCCCCCCCCCCCCCCCCC(=O)O)C(=O)O)NC(=O)[C@H](CCC(N)=O)NC(=O)[C@H](C)NC(=O)[C@@H](NC(=O)[C@H](CCCCN)NC(=O)[C@H](CC(=O)O)NC(=O)[C@H](CC(C)C)NC(=O)C(C)(C)NC(=O)[C@@H](NC(=O)[C@H](CO)NC(=O)[C@H](Cc1ccc(O)cc1)NC(=O)[C@H](CC(=O)O)NC(=O)[C@H](CO)NC(=O)[C@@H](NC(=O)[C@H](Cc1ccccc1)NC(=O)[C@@H](NC(=O)CNC(=O)[C@H](CCC(=O)O)NC(=O)CCNC(=O)C(C)(C)c1cccc(Cl)c1F)[C@@H](C)O)[C@@H](C)O)[C@@H](C)CC)[C@@H](C)CC)C(C)C)C(=O)N[C@@H](C)C(=O)NCC(=O)NCC(=O)N1CCC[C@H]1C(=O)N[C@@H](CO)C(=O)N[C@@H](CO)C(=O)NCC(=O)N[C@@H](C)C(=O)N1CCC[C@H]1C(=O)N1CCC[C@H]1C(=O)N1CCC[C@H]1C(=O)N[C@@H](CO)C(N)=O [Compound 219] ({X72-βAla}-EGTFTSDYSI[Aib]LDKIAQK([AEEA-AEEA-γGlu-C20 diacid])AFVQWLIAGGPSSGAPPPS-NH2)
- EC50 (GLP-1 receptor [1]; [5]): > 1000 nM
- EC50 (GIP receptor [2]; [6]): < 1000 nM
- EC50 (GLP-1 receptor [3]; [7]): < 0.1 nM
- Emax (GLP-1 receptor [3]; [8]): 104%
- EC50 (GIP receptor [4]; [9]): 0.1 to 1 nM
- Emax (GIP receptor [4]; [10]): 106%

Structure (SMILES): CC[C@H](C)[C@H](NC(=O)[C@H](CC(C)C)NC(=O)[C@H](Cc1c[nH]c2ccccc12)NC(=O)[C@H](CCC(N)=O)NC(=O)[C@@H](NC(=O)[C@H](Cc1ccccc1)NC(=O)[C@H](C)NC(=O)[C@H](CCCCNC(=O)COCCOCCNC(=O)COCCOCCNC(=O)CC[C@H](NC(=O)CCCCCCCCCCCCCCCCCCC(=O)O)C(=O)O)NC(=O)[C@H](CCC(N)=O)NC(=O)[C@H](C)NC(=O)[C@@H](NC(=O)[C@H](CCCCN)NC(=O)[C@H](CC(=O)O)NC(=O)[C@H](CC(C)C)NC(=O)C(C)(C)NC(=O)[C@@H](NC(=O)[C@H](CO)NC(=O)[C@H](Cc1ccc(O)cc1)NC(=O)[C@H](CC(=O)O)NC(=O)[C@H](CO)NC(=O)[C@@H](NC(=O)[C@H](Cc1ccccc1)NC(=O)[C@@H](NC(=O)CNC(=O)[C@H](CCC(=O)O)NC(=O)CCNC(=O)C1(c2ccc(F)cc2F)CCCC1)[C@@H](C)O)[C@@H](C)O)[C@@H](C)CC)[C@@H](C)CC)C(C)C)C(=O)N[C@@H](C)C(=O)NCC(=O)NCC(=O)N1CCC[C@H]1C(=O)N[C@@H](CO)C(=O)N[C@@H](CO)C(=O)NCC(=O)N[C@@H](C)C(=O)N1CCC[C@H]1C(=O)N1CCC[C@H]1C(=O)N1CCC[C@H]1C(=O)N[C@@H](CO)C(N)=O [Compound 220] ({X5-βAla}-EGTFTSDYSI[Aib]LDKIAQK([AEEA-AEEA-γGlu-C20 diacid])AFVQWLIAGGPSSGAPPPS-NH2)
- EC50 (GLP-1 receptor [1]; [5]): > 1000 nM
- EC50 (GIP receptor [2]; [6]): < 1000 nM
- EC50 (GLP-1 receptor [3]; [7]): 0.1 to 1 nM
- Emax (GLP-1 receptor [3]; [8]): 102%
- EC50 (GIP receptor [4]; [9]): 0.1 to 1 nM
- Emax (GIP receptor [4]; [10]): 108%

Structure (SMILES): CC[C@H](C)[C@H](NC(=O)[C@H](CC(C)C)NC(=O)[C@H](Cc1c[nH]c2ccccc12)NC(=O)[C@H](CCC(N)=O)NC(=O)[C@@H](NC(=O)[C@H](Cc1ccccc1)NC(=O)[C@H](C)NC(=O)[C@H](CCCCNC(=O)COCCOCCNC(=O)COCCOCCNC(=O)CC[C@H](NC(=O)CCCCCCCCCCCCCCCCCCC(=O)O)C(=O)O)NC(=O)[C@H](CCC(N)=O)NC(=O)[C@H](C)NC(=O)[C@@H](NC(=O)[C@H](CCCCN)NC(=O)[C@H](CC(=O)O)NC(=O)[C@H](CC(C)C)NC(=O)C(C)(C)NC(=O)[C@@H](NC(=O)[C@H](CO)NC(=O)[C@H](Cc1ccc(O)cc1)NC(=O)[C@H](CC(=O)O)NC(=O)[C@H](CO)NC(=O)[C@@H](NC(=O)[C@H](Cc1ccccc1)NC(=O)[C@@H](NC(=O)CNC(=O)[C@H](CCC(=O)O)NC(=O)CCCNC(=O)CNC(=O)Cc1cccc(Cl)c1)[C@@H](C)O)[C@@H](C)O)[C@@H](C)CC)[C@@H](C)CC)C(C)C)C(=O)N[C@@H](C)C(=O)NCC(=O)NCC(=O)N1CCC[C@H]1C(=O)N[C@@H](CO)C(=O)N[C@@H](CO)C(=O)NCC(=O)N[C@@H](C)C(=O)N1CCC[C@H]1C(=O)N1CCC[C@H]1C(=O)N1CCC[C@H]1C(=O)N[C@@H](CO)C(N)=O [Compound 221] ({Phenylacetyl(3-Cl)}-G[GABA]EGTFTSDYSI[Aib]LDKIAQK([AEEA-AEEA-γGlu-C20 diacid])AFVQWLIAGGPSSGAPPPS-NH2)
- EC50 (GLP-1 receptor [1]): > 1000 nM
- EC50 (GIP receptor [2]): > 1000 nM
- EC50 (GLP-1 receptor [3]): 10 to 100 nM
- Emax (GLP-1 receptor [3]; CHO): 95%
- EC50 (GIP receptor [4]): 10 to 100 nM
- Emax (GIP receptor [4]; CHO): 95%

Structure (SMILES): CC[C@H](C)[C@H](NC(=O)[C@H](CC(C)C)NC(=O)[C@H](Cc1c[nH]c2ccccc12)NC(=O)[C@H](CCC(N)=O)NC(=O)[C@@H](NC(=O)[C@H](Cc1ccccc1)NC(=O)[C@H](C)NC(=O)[C@H](CCCCNC(=O)COCCOCCNC(=O)COCCOCCNC(=O)CC[C@H](NC(=O)CCCCCCCCCCCCCCCCCCC(=O)O)C(=O)O)NC(=O)[C@H](CCC(N)=O)NC(=O)[C@H](C)NC(=O)[C@@H](NC(=O)[C@H](CCCCN)NC(=O)[C@H](CC(=O)O)NC(=O)[C@H](CC(C)C)NC(=O)C(C)(C)NC(=O)[C@@H](NC(=O)[C@H](CO)NC(=O)[C@H](Cc1ccc(O)cc1)NC(=O)[C@H](CC(=O)O)NC(=O)[C@H](CO)NC(=O)[C@@H](NC(=O)[C@H](Cc1ccccc1)NC(=O)[C@@H](NC(=O)CNC(=O)[C@H](CCC(=O)O)NC(=O)C[C@H](C)NC(=O)C(C)(C)c1cc(F)cc(C#N)c1)[C@@H](C)O)[C@@H](C)O)[C@@H](C)CC)[C@@H](C)CC)C(C)C)C(=O)N[C@@H](C)C(=O)NCC(=O)NCC(=O)N1CCC[C@H]1C(=O)N[C@@H](CO)C(=O)N[C@@H](CO)C(=O)NCC(=O)N[C@@H](C)C(=O)N1CCC[C@H]1C(=O)N1CCC[C@H]1C(=O)N1CCC[C@H]1C(=O)N[C@@H](CO)C(N)=O [Compound 222] ({Isobutyryl(2-(3-CN-5-F-Ph))}-[β3hA]EGTFTSDYSI[Aib]LDKIAQK([AEEA-AEEA-γGlu-C20 diacid])AFVQWLIAGGPSSGAPPPS-NH2)
- EC50 (GLP-1 receptor [1]; [5]): > 1000 nM
- EC50 (GIP receptor [2]; [6]): > 1000 nM
- EC50 (GLP-1 receptor [3]; [7]): 0.1 to 1 nM
- Emax (GLP-1 receptor [3]; [8]): 108%
- EC50 (GIP receptor [4]; [9]): 10 to 100 nM
- Emax (GIP receptor [4]; [10]): 101%

From US12281149B2, “Modulators of G-protein coupled receptors” (priority 2021, dated 2025)
